Source: ChEMBL document CHEMBL1857833, “Screening and optimization of specific chemical series against human African Trypanosomiasis (HAT)”
≈ marks a conversion by molar mass, not a printed value.

Columns and labels:
[1] = DNDI: Cytotoxicity against L929 mouse fibroblasts, CYTO-SP, 24 hour; assay type: toxicity, cell-based; details: mouse, L929 mouse fibroblasts
Trypanosoma brucei = experiment: DNDI: Inhibition of Human African Trypanosomiasis, SBRI 427, in vitro; assay type: functional, organism-based; details: Trypanosoma brucei, SBRI 427; read-out: IC50
[2] = DNDI: Cytotoxicity against L929 mouse fibroblasts, 72 hour.; assay type: toxicity, cell-based; details: mouse, L929 mouse fibroblasts

IC50 (Trypanosoma brucei)	SMILES	IC50 at 24 h [1]	IC50 at 72 h [2]
–	Cc1ccc(Oc2ccc(/C(=N/O)NCC3CC3)cn2)c(C)c1	> 50 µg/mL	–
> 5 µg/mL	COc1ccccc1Oc1ncccc1C(=O)NC1CCCCC1	> 50 µg/mL	–
1.09 µg/mL (≈ 3.1 µM)	CN(/C(=N\O)c1cccnc1OCc1cccc(F)c1)c1ccccc1	> 50 µg/mL	–
0.34 µg/mL (≈ 1.09 µM)	COc1ccc(Oc2ncccc2/C(=N/O)NCC2CC2)cc1	> 50 µg/mL	–
> 5 µg/mL	COc1ccc(/C(CNC(C)C)=N/O)cc1	> 50 µg/mL	–
0.54 µg/mL (≈ 1.52 µM)	CC(C)c1ccc(Oc2ncccc2/C(=N/O)NCC2CCCO2)cc1 (stereo unspecified)	> 50 µg/mL	–
> 5 µg/mL	O/N=C(/c1ccccc1-c1ccccc1)n1ccnc1	> 50 µg/mL	–
0.19 µg/mL (≈ 0.563 µM)	O/N=C(\NC1CCC1)c1cccnc1Oc1ccc2c(c1)CCCC2	> 50 µg/mL	–
> 5 µg/mL	N#Cc1cccnc1Oc1ccc2ccccc2c1	> 50 µg/mL	–
–	Cc1ccc(/C(=N/O)NC2CCC(C)CC2)c(OCc2ccccn2)n1 (stereo unspecified)	> 50 µg/mL	–
–	COc1ccccc1Oc1ncccc1/C(=N/O)NC1CCCC1	> 50 µg/mL	–
–	CCC(CC)N/C(=N\O)c1ccc(C)nc1Oc1ccc(C)cc1OC	> 50 µg/mL	–
–	COc1cc(C)ccc1Oc1nc(C)ccc1/C(=N/O)NCC(C)C	> 50 µg/mL	–
–	COc1cc(C)ccc1Oc1nc(C)ccc1/C(=N/O)NCC1CC1	> 50 µg/mL	–
> 5 µg/mL	COC(=O)c1sccc1NC(N)=O	–	> 10 µg/mL
> 5 µg/mL	CCCCc1ccc(-c2nc(-c3cc(-c4ccccc4)no3)co2)cc1	–	> 10 µg/mL
0.74 µg/mL (≈ 2.46 µM)	CCCCCC(C)NCc1coc(-c2ccc(C)c(C)c2)n1 (stereo unspecified)	–	1.86 µg/mL (≈ 6.19 µM)
0.69 µg/mL (≈ 2.06 µM)	CCCCc1ccc(-c2nc(CNCCc3ccccc3)co2)cc1	–	2.3 µg/mL (≈ 6.88 µM)
> 5 µg/mL	COc1cccc(C(NCc2ccc(C)cc2)c2nc(Cc3ccccc3)c(N3CCOCC3)o2)c1 (stereo unspecified)	–	> 10 µg/mL
> 5 µg/mL	Cc1cc(NCCCN2CCCC2)n2nc(-c3cccc(F)c3)cc2n1	–	> 10 µg/mL
> 5 µg/mL	COc1ccccc1CNC(c1ccccc1)c1nc(-c2ccccc2)c(N2CCOCC2)o1 (stereo unspecified)	–	> 10 µg/mL
3.96 µg/mL (≈ 9.51 µM)	CCc1cccc(N/C(=N\O)c2ccc(C)nc2Oc2cc(Cl)ccc2Cl)c1	–	4.7 µg/mL (≈ 11.3 µM)
> 5 µg/mL	COc1ccc(S(=O)(=O)NC2CCCCC2)cc1	–	> 10 µg/mL
0.1 µg/mL (≈ 0.291 µM)	CCCCc1ccc(-c2nc(CNCCCN(CC)CC)co2)cc1	–	0.89 µg/mL (≈ 2.59 µM)

IC50 (Trypanosoma brucei)	SMILES	IC50 at 24 h [1]	IC50 at 72 h [2]
–	Cc1ccc(/C(=N/O)NCC(C)(C)C)c(Oc2ccc3ccccc3c2)n1	34 µg/mL (≈ 93.5 µM)	–
> 5 µg/mL	CCCCc1ccc(-c2nc(-c3ccc(OC)cc3)co2)cc1	–	> 10 µg/mL
> 5 µg/mL	c1ccc(-c2nc(C(NCCCn3ccnc3)C3CC3)oc2N2CCOCC2)cc1 (stereo unspecified)	–	> 10 µg/mL
0.41 µg/mL (≈ 1.31 µM)	CCCCc1ccc(-c2nc(CNC3CCCCC3)co2)cc1	–	1.44 µg/mL (≈ 4.61 µM)
0.34 µg/mL (≈ 0.951 µM)	CCCCc1ccc(-c2nc(CNCCCN3CCOCC3)co2)cc1	–	2.08 µg/mL (≈ 5.82 µM)
2.54 µg/mL (≈ 9.12 µM)	CCCCCC(C)NCc1coc(C2CCCCC2)n1 (stereo unspecified)	–	10 µg/mL (≈ 35.9 µM)
> 5 µg/mL	c1ccc(-c2nc(C(NCc3ccco3)C3CC3)oc2N2CCOCC2)cc1 (stereo unspecified)	–	> 10 µg/mL
1.41 µg/mL (≈ 4.96 µM)	COc1ccc(/C(=N/O)Nc2cccc(C(C)C)c2)cc1	–	5.81 µg/mL (≈ 20.4 µM)
> 5 µg/mL	CCCCc1ccc(-c2nc(-c3ccccc3)c(C)o2)cc1	–	> 10 µg/mL
> 5 µg/mL	CCCCc1ccc(-c2nc(CNCc3ccccn3)co2)cc1	–	9.31 µg/mL (≈ 29 µM)
> 5 µg/mL	Cc1cc(NCCCN(C)C)n2nc(-c3cccc(F)c3)cc2n1	–	> 10 µg/mL
> 5 µg/mL	CCC(C)C(NCc1ccc(C)cc1)c1nc(-c2ccccc2)c(N2CCCCC2)o1 (stereo unspecified)	–	> 10 µg/mL
> 5 µg/mL	CCC(C)C(NCc1ccccc1OC)c1nc(Cc2ccccc2)c(N2CCCCC2)o1 (stereo unspecified)	–	> 10 µg/mL
> 5 µg/mL	CC(C)(C)OC(=O)N1CCN(c2cc(C(C)(C)C)nc3cc(-c4ccc(F)cc4)nn23)CC1	–	> 10 µg/mL
–	CC1CCC(N/C(=N\O)c2cccnc2Oc2ccc(-n3cncn3)cc2)CC1 (stereo unspecified)	> 50 µg/mL	–
> 5 µg/mL	CN(C)CCCNCc1coc(-c2ccc(OCCc3ccccc3)cc2)n1	–	> 10 µg/mL
1.49 µg/mL (≈ 4.71 µM)	CCCCCC(C)NCc1nc(-c2ccc(OC)cc2)oc1C (stereo unspecified)	–	> 10 µg/mL
2.15 µg/mL (≈ 6.35 µM)	CCCCCC(C)NCc1coc(-c2ccc(OC(F)F)cc2)n1 (stereo unspecified)	–	3.82 µg/mL (≈ 11.3 µM)
> 5 µg/mL	CCc1cccc(NS(=O)(=O)c2ccc(OC)cc2)c1	–	1.88 µg/mL (≈ 6.45 µM)
1.13 µg/mL (≈ 2.9 µM)	CN(C)CCCNc1cc(-c2ccccc2)nc2cc(-c3cccc(F)c3)nn12	–	2.28 µg/mL (≈ 5.85 µM)
> 5 µg/mL	CC(C)COc1ccc(-c2nc(CNCCCN(C)C)co2)cc1	–	> 10 µg/mL
0.3 µg/mL (≈ 0.886 µM)	CCCCc1ccc(-c2nc(CNCCCn3ccnc3)co2)cc1	–	0.66 µg/mL (≈ 1.95 µM)
1.54 µg/mL (≈ 4.87 µM)	CCCCCC(C)NCc1nc(-c2cccc(OC)c2)oc1C (stereo unspecified)	–	> 10 µg/mL
